This passage reports IC50 and inhibition results from ChEMBL document CHEMBL3233010, “Design, synthesis and biological evaluation of novel 6-alkenylamides substituted of 4-anilinothieno[2,3-d]pyrimidines as irreversible epidermal growth factor receptor inhibitors” (Bioorg Med Chem, 2014).

Active and inactive are the calls of the source. The calls are words filed in the database; no cut-off is given here.

Assay [1] has as its system A-431. Kind of assay: Antiproliferative activity against human A431 cells assessed as growth inhibition after 72 hrs by SRB assay. The settings on record: A-431, 72 h. The assay is classed as functional, cell-based. On the technique in general: In SRB staining, fixed cells bind dye roughly in proportion to their protein.
The test system of assay [2] is Epidermal growth factor receptor (Homo sapiens), P00533 [L858R,T790M]. The experiment in a line: Inhibition of EGFR T790M/L858R double mutant in human NCI-H1975 cells assessed as inhibition of EGF-induced AKT phosphorylation pretreated for 2 hrs followed by EGF challenge by Western blotting analysis. The assay is classed as cell-based. Background: A western blot detects proteins with antibodies after separation by electrophoresis.

Assay [3] concerns the target T1, Epidermal growth factor receptor (Homo sapiens, UniProt P00533). The experiment in a line: Inhibition of wild type EGFR domain (unknown origin) expressed in baculovirus expression system using Poly(Glu:Tyr)4:1 substrate after 60 mins by ELISA. For orientation: An ELISA detects its analyte on a solid surface through an enzyme-linked reagent.
The test system of assay [4] is Epidermal growth factor receptor (Homo sapiens), P00533 [L858R,T790M]. The experiment in a line: Inhibition of EGFR T790M/L858R double mutant in human NCI-H1975 cells assessed as inhibition of EGF-induced ERK1/2 phosphorylation pretreated for 2 hrs followed by EGF challenge by Western blotting analysis. The assay is classed as cell-based.
Assay [5] concerns the target T1, Epidermal growth factor receptor. Kind of assay: Inhibition of EGF-induced EGFR autophosphorylation in human A431 cells pretreated for 2 hrs followed by EGF challenge by Western blotting analysis. The assay is classed as cell-based. The settings on record: A-431.
The subject of assay [6] is Epidermal growth factor receptor (Homo sapiens), P00533 [L858R,T790M]. The experiment in a line: Inhibition of EGF-induced EGFR T790M/L858R double mutant phosphorylation in human NCI-H1975 cells pretreated for 2 hrs followed by EGF challenge by Western blotting analysis. The assay is classed as cell-based.
The target in assay [7] is T1, Epidermal growth factor receptor. The experiment in a line: Inhibition of EGF-induced EGFR autophosphorylation in human A431 cells at 0.1 umol/L pretreated for 2 hrs followed by EGF challenge by Western blotting analysis. The assay is classed as cell-based. The settings on record: A-431.
Assay [8] shares this target. The experiment in a line: Inhibition of EGFR in human A431 cells assessed as inhibition of EGF-induced AKT phosphorylation at 0.1 to 1 umol/L pretreated for 2 hrs followed by EGF challenge by Western blotting analysis. The assay is classed as cell-based. The settings on record: A-431.
Assay [9] concerns the target Epidermal growth factor receptor (Homo sapiens, UniProt P00533, L858R/T790M). The experiment in a line: Inhibition of EGFR T790M/L858R double mutant (unknown origin) expressed in baculovirus expression system using Poly(Glu:Tyr)4:1 substrate after 60 mins by ELISA.
Assay [10] relates to NCI-H1975. The experiment in a line: Antiproliferative activity against gefitinib-resistant human NCI-H1975 cells assessed as growth inhibition after 72 hrs by SRB assay. The assay is classed as functional, cell-based. The settings on record: NCI-H1975, 72 h.
The target in assay [11] is T1, Epidermal growth factor receptor. Kind of assay: Inhibition of EGFR in human A431 cells assessed as inhibition of EGF-induced ERK1/2 phosphorylation at 0.1 to 1 umol/L pretreated for 2 hrs followed by EGF challenge by Western blotting analysis. The assay is classed as cell-based. The settings on record: A-431.
In assay [12] the target is Macrophage-stimulating protein receptor (Homo sapiens, UniProt Q04912). The experiment in a line: Inhibition of recombinant RON (unknown origin) using Poly(Glu:Tyr)4:1 after 60 mins by ELISA.
Assay [13] addresses Fibroblast growth factor receptor 1 (Homo sapiens, UniProt P11362). Kind of assay: Inhibition of FGFR1 (unknown origin) expressed in baculovirus expression system using Poly(Glu:Tyr)4:1 after 60 mins by ELISA.
Assay [14] addresses Proto-oncogene tyrosine-protein kinase receptor Ret (Homo sapiens, UniProt P07949). Kind of assay: Inhibition of recombinant RET (unknown origin) using Poly(Glu:Tyr)4:1 after 60 mins by ELISA.
For assay [15], the target named is Tyrosine-protein kinase ABL1 (Homo sapiens, UniProt P00519). The experiment in a line: Inhibition of recombinant ABL (unknown origin) using Poly(Glu:Tyr)4:1 after 60 mins by ELISA.
For assay [16], the system named is Epidermal growth factor receptor (Homo sapiens), P00533 [L858R,T790M]. Kind of assay: Inhibition of EGF-induced EGFR T790M/L858R double mutant phosphorylation in human NCI-H1975 cells at 0.1 umol/L pretreated for 2 hrs followed by EGF challenge by Western blotting analysis. The assay is classed as cell-based.
In assay [17] the target is Receptor tyrosine-protein kinase erbB-2 (Homo sapiens, UniProt P04626). The experiment in a line: Inhibition of ErbB2 (unknown origin) expressed in baculovirus expression system using Poly(Glu:Tyr)4:1 after 60 mins by ELISA.
For assay [18], the target named is Platelet-derived growth factor receptor alpha (Homo sapiens, UniProt P16234). The experiment in a line: Inhibition of recombinant PDGFRalpha (unknown origin) using Poly(Glu:Tyr)4:1 after 60 mins by ELISA.
In assay [19] the target is Receptor tyrosine-protein kinase erbB-4 (Homo sapiens, UniProt Q15303). The experiment in a line: Inhibition of recombinant ErbB4 (unknown origin) using Poly(Glu:Tyr)4:1 after 60 mins by ELISA.
Assay [20] concerns the target Mast/stem cell growth factor receptor Kit (Homo sapiens, UniProt P10721). The experiment in a line: Inhibition of recombinant c-Kit (unknown origin) using Poly(Glu:Tyr)4:1 after 60 mins by ELISA.
For assay [21], the target named is Insulin-like growth factor 1 receptor (Homo sapiens, UniProt P08069). The experiment in a line: Inhibition of IGF1R (unknown origin) expressed in baculovirus expression system using Poly(Glu:Tyr)4:1 after 60 mins by ELISA.
For assay [22], the target named is Vascular endothelial growth factor receptor 1 (Homo sapiens, UniProt P17948). Kind of assay: Inhibition of recombinant Flt-1 (unknown origin) using Poly(Glu:Tyr)4:1 after 60 mins by ELISA.
In assay [23] the target is Vascular endothelial growth factor receptor 2 (Homo sapiens, UniProt P35968). The experiment in a line: Inhibition of KDR (unknown origin) expressed in baculovirus expression system using Poly(Glu:Tyr)4:1 after 60 mins by ELISA.
Assay [24] has as its target Platelet-derived growth factor receptor beta (Homo sapiens, UniProt P09619). The experiment in a line: Inhibition of recombinant PDGFRbeta (unknown origin) using Poly(Glu:Tyr)4:1 after 60 mins by ELISA.
The target of assay [25] is Ephrin type-A receptor 2 (Homo sapiens, UniProt P29317). Kind of assay: Inhibition of recombinant EPHA2 (unknown origin) using Poly(Glu:Tyr)4:1 after 60 mins by ELISA.

T1 sequence (P00533 whole entry, the tested form may be a part): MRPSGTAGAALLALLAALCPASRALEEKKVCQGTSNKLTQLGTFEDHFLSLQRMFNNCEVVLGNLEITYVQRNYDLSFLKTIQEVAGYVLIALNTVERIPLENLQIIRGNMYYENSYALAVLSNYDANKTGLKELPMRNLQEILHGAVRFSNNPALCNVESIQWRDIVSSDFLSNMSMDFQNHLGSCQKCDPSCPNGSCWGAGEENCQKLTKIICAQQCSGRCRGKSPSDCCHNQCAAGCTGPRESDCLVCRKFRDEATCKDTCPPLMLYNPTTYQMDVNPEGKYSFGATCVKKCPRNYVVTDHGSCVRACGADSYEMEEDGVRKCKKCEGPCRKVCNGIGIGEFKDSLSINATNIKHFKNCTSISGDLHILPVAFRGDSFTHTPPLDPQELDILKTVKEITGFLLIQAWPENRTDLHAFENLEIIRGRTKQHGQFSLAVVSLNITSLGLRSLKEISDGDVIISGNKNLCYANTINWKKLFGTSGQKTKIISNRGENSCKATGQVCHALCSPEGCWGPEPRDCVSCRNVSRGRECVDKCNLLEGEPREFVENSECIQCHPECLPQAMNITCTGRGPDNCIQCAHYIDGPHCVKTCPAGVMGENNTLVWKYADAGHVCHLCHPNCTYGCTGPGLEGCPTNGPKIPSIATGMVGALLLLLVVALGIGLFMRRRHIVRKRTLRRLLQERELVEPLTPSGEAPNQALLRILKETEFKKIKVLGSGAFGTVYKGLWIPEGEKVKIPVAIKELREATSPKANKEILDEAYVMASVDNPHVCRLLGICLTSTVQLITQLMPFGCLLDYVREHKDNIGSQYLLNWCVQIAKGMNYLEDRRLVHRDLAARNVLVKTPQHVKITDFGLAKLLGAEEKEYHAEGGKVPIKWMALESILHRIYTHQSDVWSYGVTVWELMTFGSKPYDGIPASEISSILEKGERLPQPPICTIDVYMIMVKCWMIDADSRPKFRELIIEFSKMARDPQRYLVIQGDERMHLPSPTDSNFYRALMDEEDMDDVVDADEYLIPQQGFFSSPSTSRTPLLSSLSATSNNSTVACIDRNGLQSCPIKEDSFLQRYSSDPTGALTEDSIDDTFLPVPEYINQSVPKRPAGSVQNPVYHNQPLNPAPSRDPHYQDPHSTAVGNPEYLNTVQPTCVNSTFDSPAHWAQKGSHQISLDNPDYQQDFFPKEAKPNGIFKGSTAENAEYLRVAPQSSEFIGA
Chain of Epidermal growth factor receptor (Homo sapiens), P00533 [L858R,T790M] (P00533 whole entry T790M/L858R, looked up): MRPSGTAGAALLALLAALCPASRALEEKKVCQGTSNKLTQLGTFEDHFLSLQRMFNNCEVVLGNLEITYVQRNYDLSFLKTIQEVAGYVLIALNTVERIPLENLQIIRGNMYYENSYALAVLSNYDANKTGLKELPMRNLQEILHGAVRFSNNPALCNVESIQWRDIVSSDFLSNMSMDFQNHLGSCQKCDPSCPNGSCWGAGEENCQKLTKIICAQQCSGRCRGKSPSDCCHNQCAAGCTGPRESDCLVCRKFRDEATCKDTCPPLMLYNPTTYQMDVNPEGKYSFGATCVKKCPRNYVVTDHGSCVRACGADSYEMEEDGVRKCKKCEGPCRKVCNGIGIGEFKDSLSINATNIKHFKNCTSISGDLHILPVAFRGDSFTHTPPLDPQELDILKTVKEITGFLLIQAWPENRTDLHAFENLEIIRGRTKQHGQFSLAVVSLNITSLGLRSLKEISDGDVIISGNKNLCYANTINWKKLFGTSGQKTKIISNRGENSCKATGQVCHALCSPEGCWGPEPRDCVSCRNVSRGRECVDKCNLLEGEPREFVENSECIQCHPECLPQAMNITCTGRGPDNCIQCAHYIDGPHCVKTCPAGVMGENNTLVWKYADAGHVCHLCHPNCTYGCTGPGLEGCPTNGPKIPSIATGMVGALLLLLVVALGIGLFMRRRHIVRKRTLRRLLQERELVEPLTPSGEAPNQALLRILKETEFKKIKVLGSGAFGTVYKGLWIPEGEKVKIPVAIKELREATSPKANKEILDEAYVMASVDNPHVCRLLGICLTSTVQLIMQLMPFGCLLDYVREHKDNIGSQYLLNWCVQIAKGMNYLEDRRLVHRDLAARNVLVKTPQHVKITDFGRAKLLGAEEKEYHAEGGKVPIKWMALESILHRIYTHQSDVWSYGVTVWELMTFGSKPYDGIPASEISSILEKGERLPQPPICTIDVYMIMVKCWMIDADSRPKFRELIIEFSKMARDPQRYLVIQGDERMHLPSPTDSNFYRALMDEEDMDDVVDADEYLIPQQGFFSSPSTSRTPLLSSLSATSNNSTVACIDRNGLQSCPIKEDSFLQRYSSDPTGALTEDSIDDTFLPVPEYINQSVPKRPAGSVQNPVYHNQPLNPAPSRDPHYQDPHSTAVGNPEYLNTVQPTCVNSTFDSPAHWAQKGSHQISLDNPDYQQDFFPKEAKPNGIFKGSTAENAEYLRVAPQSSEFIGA
Chain of Epidermal growth factor receptor (Homo sapiens, UniProt P00533, L858R/T790M) (P00533 25-1210 T790M/L858R limits assumed): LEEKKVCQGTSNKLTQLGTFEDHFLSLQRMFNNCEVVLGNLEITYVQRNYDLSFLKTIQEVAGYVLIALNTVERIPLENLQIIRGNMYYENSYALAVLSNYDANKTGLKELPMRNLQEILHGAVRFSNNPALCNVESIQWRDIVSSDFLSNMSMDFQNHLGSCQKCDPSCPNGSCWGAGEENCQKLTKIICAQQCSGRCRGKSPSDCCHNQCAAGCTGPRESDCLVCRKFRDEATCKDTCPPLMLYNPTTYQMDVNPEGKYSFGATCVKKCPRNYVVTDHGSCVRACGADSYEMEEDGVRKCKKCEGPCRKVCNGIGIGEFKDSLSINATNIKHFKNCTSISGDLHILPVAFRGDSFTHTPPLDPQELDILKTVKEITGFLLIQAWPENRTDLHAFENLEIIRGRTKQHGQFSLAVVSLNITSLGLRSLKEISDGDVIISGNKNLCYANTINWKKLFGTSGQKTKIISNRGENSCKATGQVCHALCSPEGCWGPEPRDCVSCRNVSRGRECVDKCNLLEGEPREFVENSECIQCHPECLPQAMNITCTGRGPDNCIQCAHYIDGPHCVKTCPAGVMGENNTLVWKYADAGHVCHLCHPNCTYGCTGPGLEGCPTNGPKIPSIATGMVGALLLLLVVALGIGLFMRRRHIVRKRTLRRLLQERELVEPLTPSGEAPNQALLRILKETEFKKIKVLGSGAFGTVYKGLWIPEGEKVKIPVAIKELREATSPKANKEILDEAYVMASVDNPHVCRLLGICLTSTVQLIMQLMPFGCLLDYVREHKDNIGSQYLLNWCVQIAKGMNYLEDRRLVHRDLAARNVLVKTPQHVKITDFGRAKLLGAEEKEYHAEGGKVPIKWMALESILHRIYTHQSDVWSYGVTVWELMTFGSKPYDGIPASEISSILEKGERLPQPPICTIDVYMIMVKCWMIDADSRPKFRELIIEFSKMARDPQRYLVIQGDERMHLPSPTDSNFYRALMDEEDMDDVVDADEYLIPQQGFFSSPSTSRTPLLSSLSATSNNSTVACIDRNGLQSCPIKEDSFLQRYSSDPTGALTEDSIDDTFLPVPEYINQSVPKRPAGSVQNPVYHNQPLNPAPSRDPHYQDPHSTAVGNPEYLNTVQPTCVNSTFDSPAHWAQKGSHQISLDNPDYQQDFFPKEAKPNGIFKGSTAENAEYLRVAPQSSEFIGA
Chain of Platelet-derived growth factor receptor alpha (P16234 whole entry): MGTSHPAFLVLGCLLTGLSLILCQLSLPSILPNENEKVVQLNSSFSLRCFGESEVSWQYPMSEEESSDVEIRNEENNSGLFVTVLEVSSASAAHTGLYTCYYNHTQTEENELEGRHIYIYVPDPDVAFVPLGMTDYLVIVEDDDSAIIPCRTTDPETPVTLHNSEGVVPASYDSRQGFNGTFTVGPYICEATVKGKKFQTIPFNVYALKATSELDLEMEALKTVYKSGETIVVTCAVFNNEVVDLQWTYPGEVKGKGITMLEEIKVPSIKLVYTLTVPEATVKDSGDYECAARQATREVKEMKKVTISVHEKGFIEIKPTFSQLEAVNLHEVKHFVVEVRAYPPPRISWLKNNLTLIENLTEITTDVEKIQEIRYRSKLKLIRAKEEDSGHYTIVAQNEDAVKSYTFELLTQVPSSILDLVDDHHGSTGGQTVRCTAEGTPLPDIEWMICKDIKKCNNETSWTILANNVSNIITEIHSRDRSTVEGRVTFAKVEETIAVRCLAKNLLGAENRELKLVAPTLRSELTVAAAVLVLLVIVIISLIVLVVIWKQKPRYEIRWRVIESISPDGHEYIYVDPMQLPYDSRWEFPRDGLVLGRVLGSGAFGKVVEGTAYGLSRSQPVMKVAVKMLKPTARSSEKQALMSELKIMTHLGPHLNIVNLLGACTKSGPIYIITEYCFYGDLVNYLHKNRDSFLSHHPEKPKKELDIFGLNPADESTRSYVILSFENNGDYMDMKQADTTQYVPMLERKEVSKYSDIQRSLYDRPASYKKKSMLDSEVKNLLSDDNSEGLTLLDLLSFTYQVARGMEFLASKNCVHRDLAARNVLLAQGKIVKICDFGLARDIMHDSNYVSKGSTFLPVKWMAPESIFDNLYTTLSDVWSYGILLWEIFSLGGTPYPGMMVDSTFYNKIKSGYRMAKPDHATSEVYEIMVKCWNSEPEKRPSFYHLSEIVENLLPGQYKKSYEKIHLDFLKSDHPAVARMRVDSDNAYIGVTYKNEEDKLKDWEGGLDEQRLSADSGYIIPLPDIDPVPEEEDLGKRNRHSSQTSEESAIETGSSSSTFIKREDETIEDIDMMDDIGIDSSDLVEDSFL

Take `O=C(/C=C/CN1CCC(F)(F)CC1)Nc1cc2c(Nc3ccc(F)c(Cl)c3)ncnc2s1`: the IC50 (commonly the concentration that inhibits the measured activity by half) in [1] was determined as 1200 nM; in [3], 7 nM; in assay [9], 4 nM; in assay [10], 5160 nM. Moreover, the inhibition entry in assay [2], in assay [4], in [5] and in assay [6] was “Dose-dependent effect” each time. In addition, the inhibition result in [7], in assay [8] and in [11] was “Active” in each case.

On to `C=CC(=O)Nc1cc2c(Nc3ccc(F)c(Cl)c3)ncnc2s1`, for which the IC50 was over 10000 nM in [12]; over 10000 nM in assay [13]; 1630 nM in [14]; over 10000 nM in assay [15]; 40 nM in [17]; over 10000 nM in assay [18]. In addition, the IC50 in assay [19] is 4 nM; in assay [1], 730 nM; in [20], over 10000 nM; in assay [3], 16 nM; in [21], over 10000 nM; in assay [9], 24 nM. Also, the IC50 is over 10000 nM in [22]; 3000 nM in [10]; over 10000 nM in [23]; over 10000 nM in [24]; over 10000 nM in [25]. Besides, the inhibition result in assay [16], in [7], in assay [8] and in assay [11] was “Active” in each case. In addition, the inhibition entry in assay [2], in assay [4], in assay [5] and in [6] was “Dose-dependent effect” throughout.

As to `O=C(/C=C/CN1CC2CCC1C(=O)C2)Nc1cc2c(Nc3ccc(F)c(Cl)c3)ncnc2s1` (centres undefined), the 50% inhibitory concentration (IC50) was over 10000 nM in assay [12]; over 10000 nM in [13]; over 10000 nM in assay [14]; over 10000 nM in assay [15]; 30 nM in [17]; over 10000 nM in assay [18]. Besides, the IC50 was 37 nM in assay [19]; 1540 nM in assay [1]; over 10000 nM in assay [20]; 0.9 nM in [3]; over 10000 nM in [21]; 4 nM in [9]. Moreover, the IC50 in assay [22] is over 10000 nM; in assay [10] it was 12000 nM; in [23], over 10000 nM; in assay [24] it was over 10000 nM; in assay [25], over 10000 nM. Further, the inhibition entry in [2], in [4], in [5] and in assay [6] was “Dose-dependent effect” in each case. Further, the inhibition entry in assay [7], in assay [8] and in assay [11] was “Active” each time.

As for `O=C(/C=C/CN1CCOCC1)Nc1cc2c(Nc3ccc(F)c(Cl)c3)ncnc2s1`, the IC50 in [1] was determined as 2170 nM; in assay [3], 3 nM; in assay [9] it was 3 nM; in assay [10] it was 11700 nM. In addition, the inhibition result in [2], in assay [4], in [5] and in assay [6] was “Dose-dependent effect” each time. Moreover, the inhibition result in assay [7], in assay [8] and in assay [11] was “Active” in each case.

As to `CN(C)C/C=C/C(=O)Nc1cc2c(Nc3ccc(F)c(Cl)c3)ncnc2s1`, the IC50 is 250 nM in assay [1], 24 nM in [3], 324 nM in [9] and 10100 nM in [10].

Consider `O=C(Nc1cc2c(Nc3ccc(F)c(Cl)c3)ncnc2s1)C1CCCC1`, for which the IC50 in assay [1] is 14900 nM; in assay [3] it was over 10000 nM; in assay [9], over 10000 nM; in [10], 39300 nM.

In the case of `O=C(/C=C/CN1CCC2(CC1)OCCO2)Nc1cc2c(Nc3ccc(F)c(Cl)c3)ncnc2s1`, the half-maximal inhibitory concentration (IC50) turned out to be 550 nM in assay [1], 2 nM in [3], 20 nM in assay [9] and 6550 nM in [10].

As to `O=C(/C=C/CN1CCCCC1)Nc1cc2c(Nc3ccc(F)c(Cl)c3)ncnc2s1`, the concentration for half-maximal inhibition (IC50) stood at 130 nM in [1], 9 nM in assay [3], 2 nM in [9] and 6440 nM in assay [10]. The inhibition result in assay [2], in [4], in [5] and in assay [6] was “Dose-dependent effect” each time. Also, the inhibition entry in assay [7], in assay [8] and in assay [11] was “Active” each time.
